Results as given in patent US20240002846A1, “COMPOSITIONS AND METHODS FOR THE DIAGNOSIS AND TREATMENT OF ITCH” (Duke University, priority 2020, published 2024).
Like-named read-outs stand apart in the source and are kept apart here.

Columns and labels:
[1] = tested on: vesicular release from mKC; assay: Vesicular release from cultured mouse keratinocytes (AChE activity); assay type: cell-based; settings: 10 μM
Description: Vesicular release from cultured keratinocytes was quantified by detecting acetylcholinesterase (AChE) activity in the extracellular release fluid. (Gupta et al. Am. J. Physiol. Heart Circ. Physiol. 2007, 292, H3052-3056; Malik et al. Methods Mol. Biol. 2016, 1448, 237-248). CBQCA Protein Quantitation Kit (Molecular Probes, Eugene, OR) was used to assess the total protein amounts of each sample. Quantitation was carried out according to kit instructions (Fluorocet, Systems Biosciences, Palo Alto, CA). Briefly, vesicles were lysed to release esterase enzyme whose activity is measured using a florescence dye, excitation at 544 nm and emission at 590 nm. Fluostar Optima (BMG Labtech, Cary, NC) microplate reader was used to measure esterase activity. 500 ng protein equivalent of input was used per well. To determine the contribution of Rab5a and Rab27a to LPC-induced miR-146a release, cells were pre-treated with the Rab5a (5′-GUAGAAUCAA GUUUCUAAUUCUGAA-3′ SEQ ID NO: 9, 5′-[…]-3′ SEQ ID NO: 10) or Rab27a (5′-AGCUAAAA CUGAGAGCUUCAAACAG-3′ SEQ ID NO: 11, 5′-[…]-3′ SEQ ID NO: 12) siRNA (IDT, Coralville, IA) for 72 h before stimulation. Control cells were treated with scramble siRNA.

[2] = tested on: rat TRPV4 mutations (R746C, R746G, R746D, K754G, R757G, R774G, and W776G); assay: Ca2+ imaging in HEK cells transfected with rat TRPV4 mutations; assay type: cell-based
Description: (§1) Cell culture and transfection. HEK293 cells (ATCC® CRL-1573) were cultured on poly-D-lysine coated coverslips in 24-well plate containing DMEM media with high-Glucose (Gibco, Gaithersburg, MD) supplemented with 10% fetal bovine serum (FBS, HyClone Laboratories, Logan, UT) and 100 U/mL of penicillin/streptomycin (Gibco, Gaithersburg, MD). Cell cultures were maintained with 5% of CO2 in a humidified incubator at 37° C. HEK cells were transfected with rat or human wild type or mutant TRPV4 channels with EGFP or YFP coupled to their C-termini (1.5 μg of plasmid for excised patch clamp and Ca^2+ imaging and 200 ng for single-channel experiments). The jetPEI™ Polyplus transfection reagent (Polyplus Transfection, New York, NY) for electrophysiology or Lipofectamine™ 2000 Reagent (Invitrogen, Waltham, MA) for Ca^2+ imaging were used for transfections per manufacturer's instructions as previously described (Chen et al. Pain 2014, 155, 2662-2672; Morales-Lazaro et al. Nat. Commun. 2016, 7, 13092). To investigate whether miR-146a can directly activate TRPV1 channels or indirectly via TLRs, HEK293 cells were transfected with rTRPV1 or co-transfected rTRPV1 with rTLR7, rTLR2, or rTLR6 (Addgene, Watertown, MA) for Ca^2+ imaging assay. Control cells were transfected with GFP or YFP.
Site-directed mutagenesis of TRPV4 channels. TRPV4 sequences of multiple species were aligned using Clustal Omega program. Site-directed mutagenesis to generate point mutations in rat and human TRPV4 channels were carried out using Phusion DNA polymerase enzyme (Salazar et al. Nat. Struct. Mol. Biol. 2009, 16, 704-710; Rosenbaum et al. Neuron 2002, 33, 703-713; Hsieh et al. Methods Mol. Biol. 2013, 978, 173-186), with final sequencing to check for presence of the induced mutation. We introduced the following mutations into the rTRPV4 or hTRPV4 channel: R746C, R746G, R746D, K754G, R757G, R774G, and W776G.
In vitro and ex vivo Ca^2+ imaging. […] Ratios of emissions were acquired at 0.5 Hz. ΔR/R0 was determined as the fraction of the increase of a given ratio over baseline ratio divided by baseline ratio. […]

hTRPV4 = molecular target: T1, hTRPV4 (Homo sapiens, UniProt Q9HBA0); assay: Single-channel recordings of hTRPV4 in HEK293 cells; assay type: biochemical; settings: +60 mV; 100 nM GSK101 or 5 μM LPC 18:1
T1 construct: expressed in transfected cells; host or cells: HEK293 (ATCC CRL-1573)
Description: as §1
For single-channel recordings, Borosilicate glass […]) pipettes were used. Recordings were obtained at +60 mV by acquiring several traces of 1-3 s duration. The effect of GSK1016790A or LPC 18:1 on single TRPV4 channels was studied in inside-out. Currents were filtered at 2 kHz and sampled at 5 kHz. […] Single-channel openings and closures were identified with the half-threshold crossing technique (Morales-Lazaro et al. Nat. Commun. 2016, 7, 13092). The channel open probability was calculated as the sum of the total open time divided by the sweep duration. Dwell times and amplitude histograms in the closed or open states were collected in logarithmic time histograms according to the Sine-Sigworth transformation (Sigworth et al. Biophys. J. 1987, 52, 1047-1054). Sums of three or two exponential components were fitted to histograms using a least-squares algorithm.

T1 sequence (Q9HBA0 whole entry): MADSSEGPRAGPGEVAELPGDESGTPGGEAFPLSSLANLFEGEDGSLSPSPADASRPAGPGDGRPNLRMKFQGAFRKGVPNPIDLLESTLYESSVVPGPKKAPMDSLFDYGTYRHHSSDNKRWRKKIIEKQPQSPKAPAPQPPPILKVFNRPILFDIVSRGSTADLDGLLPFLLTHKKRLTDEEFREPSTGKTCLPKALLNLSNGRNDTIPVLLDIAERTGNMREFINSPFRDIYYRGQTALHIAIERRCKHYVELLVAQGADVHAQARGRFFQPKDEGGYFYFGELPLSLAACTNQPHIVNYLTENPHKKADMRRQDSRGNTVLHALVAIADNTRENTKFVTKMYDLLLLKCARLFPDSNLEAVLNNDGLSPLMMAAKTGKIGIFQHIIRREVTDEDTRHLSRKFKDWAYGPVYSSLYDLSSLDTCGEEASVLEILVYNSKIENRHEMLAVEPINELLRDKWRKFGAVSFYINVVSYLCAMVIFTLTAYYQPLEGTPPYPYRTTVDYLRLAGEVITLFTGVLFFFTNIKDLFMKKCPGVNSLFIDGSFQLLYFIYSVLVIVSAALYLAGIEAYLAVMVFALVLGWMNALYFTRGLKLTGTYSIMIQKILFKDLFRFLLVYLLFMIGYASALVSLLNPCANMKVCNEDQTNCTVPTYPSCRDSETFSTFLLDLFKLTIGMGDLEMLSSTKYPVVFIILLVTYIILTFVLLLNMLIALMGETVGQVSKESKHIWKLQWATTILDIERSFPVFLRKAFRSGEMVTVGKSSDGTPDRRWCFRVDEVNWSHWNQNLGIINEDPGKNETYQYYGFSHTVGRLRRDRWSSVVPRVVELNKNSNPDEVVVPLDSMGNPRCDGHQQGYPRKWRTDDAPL

Compound | effect of U0126 on LPC-induced vesicular release [1] | Ca2+ signal induced by 10 μM LPC 18:1 in TRPV4 mutants vs rTRPV4 [2] | Ca2+ signal induced by 10 μM LPC 18:1 in TRPV4 mutants vs rTRPV4 ([2]; listed as LPC (18:1)) | open level (single-channel) amplitude (hTRPV4) [pA] | open probability (Po) (hTRPV4) | single channel conductance (gi) (hTRPV4) [pS]
N#CC(=C(/N)Sc1ccccc1N)/C(C#N)=C(\N)Sc1ccccc1N [U0126] | completely eliminated | – | – | – | – | –
LPC 18:1 | – | drastically reduced | significantly reduced potency | 3.27±0.41 | 0.75±0.08 | 54.5
